Measured values: patent US20240165112A1, “THERAPY FOR THE TREATMENT OF CANCER” (Bristol-Myers Squibb Company, priority 2022, published 2024)

Key:
Format in all cases: cell-based
[1] = system: CCL2 secretion by primary human macrophages; experiment: CCL2 secretion in primary human macrophages (ELISA); conditions: normalized to DMSO
Protocol: FIG. 11 illustrates the effect of Compound 1 Treatment on CCL2 Secretion in Primary Human Macrophages. Primary human monocytes were differentiated into macrophages and treated with varying doses of DMSO or Compound 1. The CCL2 levels were measured in the cell supernatant by ELISA 24 hours after drug treatment. The CCL2 secretion levels were normalized to the equivalent DMSO concentration. Data are plotted as the mean and standard deviation of 3 donors and representative of 2 independent experiments. *P<0.05; ** P<0.01, ***P<0.001; ****P<0.0001 by student's t-test. Abbreviations: CCL2, C—C motif chemokine ligand 2; DMSO, dimethyl sulfoxide; ELISA, enzyme-linked immunosorbent assay.
Peripheral blood mononuclear cells (PBMCs) were isolated from human blood using aseptic conditions. CD14+ monocytes were enriched from PBMC using Miltenyi Biotech kit (using CD14 microbeads). Fresh CD14+ monocytes were differentiated to macrophages using complete RPMI1640 medium with M-CSF recombinant human protein at the final concentration of 50 ng/mL. At Day 3-4, media containing M-CSF was added on monocytes/macrophages and incubated for 6-7 days in 5% CO2 incubator at 37° C. 10 mL 10 mM EDTA or Detachin was added to the culture dish containing macrophages, and let sit for 20-30 minutes, or until cells dissociate from the dish at room temperature. […]

[2] = system: phospho-c-Jun in normal human lung fibroblasts (NHLF); experiment: TGF-β-induced c-Jun phosphorylation (capillary western); conditions: Fibroblast, 10 ng/mL TGF-β for 2 hours, western blot, read-out: EC50 on phospho-c-Jun levels
Protocol: (§1) Normal human lung fibroblasts (NHLF, black circle) or lung cancer-associated fibroblasts (CAF, black square) were treated with 10 ng/mL TGF-β after 1 hour pre-incubation with a range of Compound 1 concentrations, and cells were lysed 2 hours later. Phospho-c-Jun levels were evaluated by western blot. Abbreviations: CAF, cancer-associated fibroblasts; NHLF, normal lung human fibroblasts; TGF-β, transforming growth factor beta.
(§2) Normal human lung fibroblasts (NHLF) and lung cancer-associated fibroblasts (CAF) were maintained in their respective vendor recommended media. For the purposes of comparing the two cell lines, NHLF and lung CAF were both adapted to DMEM+10% fetal bovine serum (FBS) and to RPMI+10% FBS prior to use in the activation assay. Cells were seeded (150,000 NHLF and lung CAF cells) in 12 well plates and allowed to adhere overnight at 37° C., 5% CO2. The next day, cells were pre-treated for […] at 37° C. with DMSO or Compound 1 at 30 μM, 7.5 μM, 1.875 μM, 0.469 μM, 0.117 μM, 0.029 μM, and 0.007 μM. […]
(§3) The levels of phospho-c-Jun in NHLF and non-small cell lung CAF in response to TGF-β in the presence of DMSO or varying concentrations of Compound 1 were summarized in FIG. 7. […] Phospho-c-Jun levels were determined by western blot analysis and were normalized to DMSO treated samples.

[3] = system: phospho-c-Jun in lung cancer-associated fibroblasts (CAF); experiment: as above; conditions: Homo sapiens, Fibroblast, 10 ng/mL TGF-β for 2 hours, western blot, read-out: EC50 on phospho-c-Jun levels
Protocol: as §1, §2, §3

C[C@@H]1CC[C@@H](Nc2nc(NC(C)(C)C)ncc2C(N)=O)C[C@H]1O [Compound 1, 2-(tert-butylamino)-4-((1R,3R,4R)-3-hydroxy-4-methylcyclohexylamino)-pyrimidine-5-carboxamide]
reduction in CCL2 ([1]; 7.4 μM Compound 1, supernatant): 36% | reduction in CCL2 ([1]; 20 μM Compound 1, supernatant): 43% | EC50 [2]: 350 nM | EC50 [3]: 330 nM
